This note sets out measurements from ChEMBL document CHEMBL3882729, “Receptor-type kinase modulators and methods of use” (2009).

Assay [1] concerns the target Vascular endothelial growth factor receptor 2 (Homo sapiens, UniProt P35968). The assay is described as follows: Inhibition of recombinant human N-terminal GST-fused KDR (D807 to V1356 residues) expressed in baculovirus infected […] insect Sf9 cells using poly-EY as substrate after 240 mins by luciferase coupled chemiluminescence assay.
A further assay concerns the target Ephrin type-A receptor 2 (Homo sapiens, UniProt P29317). The assay is described as follows: Inhibition of recombinant human N-terminal His6-tagged EphA2 (N598 to R890 residues) expressed in baculovirus using poly-EY as substrate after 180 mins by luciferase coupled chemiluminescence assay.
Assay [2] deals with Receptor tyrosine-protein kinase erbB-2 (Homo sapiens, UniProt P04626). The assay is described as follows: Inhibition of recombinant human N-terminal GST His6-tagged thrombin cleavage site-fused ErbB2 kinase domain (Q679 to V1255 residues) expressed in baculovirus infected insect Sf9 cells using biotinylated poly-EY as substrate after 60 mins by alphascreen assay.
For another assay, the target named is T1, Ephrin type-B receptor 4 (Homo sapiens, UniProt P54760).
T1 sequence (P54760 whole entry): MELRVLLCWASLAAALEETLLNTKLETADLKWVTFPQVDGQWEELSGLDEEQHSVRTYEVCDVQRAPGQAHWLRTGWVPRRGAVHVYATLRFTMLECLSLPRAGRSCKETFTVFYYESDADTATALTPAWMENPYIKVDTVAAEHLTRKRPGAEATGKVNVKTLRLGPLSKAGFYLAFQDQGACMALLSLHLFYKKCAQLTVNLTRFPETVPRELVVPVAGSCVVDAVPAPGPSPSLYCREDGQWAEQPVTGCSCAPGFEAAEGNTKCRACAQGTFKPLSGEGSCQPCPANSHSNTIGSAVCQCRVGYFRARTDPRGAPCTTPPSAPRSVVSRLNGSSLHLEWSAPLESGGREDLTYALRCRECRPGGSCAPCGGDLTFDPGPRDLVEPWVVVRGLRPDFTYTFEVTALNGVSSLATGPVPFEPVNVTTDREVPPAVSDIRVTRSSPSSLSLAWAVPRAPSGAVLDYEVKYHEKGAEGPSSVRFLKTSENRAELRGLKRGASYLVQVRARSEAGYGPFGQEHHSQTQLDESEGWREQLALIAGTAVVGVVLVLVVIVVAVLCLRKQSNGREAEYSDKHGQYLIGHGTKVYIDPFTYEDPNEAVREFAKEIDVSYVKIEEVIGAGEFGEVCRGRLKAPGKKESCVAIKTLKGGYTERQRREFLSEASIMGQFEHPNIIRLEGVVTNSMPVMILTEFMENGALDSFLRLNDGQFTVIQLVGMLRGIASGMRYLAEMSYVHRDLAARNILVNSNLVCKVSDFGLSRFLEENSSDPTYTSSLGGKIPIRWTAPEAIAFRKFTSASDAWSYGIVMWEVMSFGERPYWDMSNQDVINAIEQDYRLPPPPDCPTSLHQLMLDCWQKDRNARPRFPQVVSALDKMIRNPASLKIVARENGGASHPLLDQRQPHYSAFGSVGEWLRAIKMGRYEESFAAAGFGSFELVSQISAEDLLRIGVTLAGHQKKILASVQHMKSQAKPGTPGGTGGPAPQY
The experiment in a line: Inhibition of recombinant human N-terminal His6-tagged EphB4 kinase domain (E605 to E890 residues) expressed in baculovirus using poly-AEKY as substrate after 150 mins in presence of gamma33P-ATP by liquid scintillation spectrometry.

Receptor tyrosine-protein kinase erbB-2, sequence (P04626 whole entry, the tested form may be a part): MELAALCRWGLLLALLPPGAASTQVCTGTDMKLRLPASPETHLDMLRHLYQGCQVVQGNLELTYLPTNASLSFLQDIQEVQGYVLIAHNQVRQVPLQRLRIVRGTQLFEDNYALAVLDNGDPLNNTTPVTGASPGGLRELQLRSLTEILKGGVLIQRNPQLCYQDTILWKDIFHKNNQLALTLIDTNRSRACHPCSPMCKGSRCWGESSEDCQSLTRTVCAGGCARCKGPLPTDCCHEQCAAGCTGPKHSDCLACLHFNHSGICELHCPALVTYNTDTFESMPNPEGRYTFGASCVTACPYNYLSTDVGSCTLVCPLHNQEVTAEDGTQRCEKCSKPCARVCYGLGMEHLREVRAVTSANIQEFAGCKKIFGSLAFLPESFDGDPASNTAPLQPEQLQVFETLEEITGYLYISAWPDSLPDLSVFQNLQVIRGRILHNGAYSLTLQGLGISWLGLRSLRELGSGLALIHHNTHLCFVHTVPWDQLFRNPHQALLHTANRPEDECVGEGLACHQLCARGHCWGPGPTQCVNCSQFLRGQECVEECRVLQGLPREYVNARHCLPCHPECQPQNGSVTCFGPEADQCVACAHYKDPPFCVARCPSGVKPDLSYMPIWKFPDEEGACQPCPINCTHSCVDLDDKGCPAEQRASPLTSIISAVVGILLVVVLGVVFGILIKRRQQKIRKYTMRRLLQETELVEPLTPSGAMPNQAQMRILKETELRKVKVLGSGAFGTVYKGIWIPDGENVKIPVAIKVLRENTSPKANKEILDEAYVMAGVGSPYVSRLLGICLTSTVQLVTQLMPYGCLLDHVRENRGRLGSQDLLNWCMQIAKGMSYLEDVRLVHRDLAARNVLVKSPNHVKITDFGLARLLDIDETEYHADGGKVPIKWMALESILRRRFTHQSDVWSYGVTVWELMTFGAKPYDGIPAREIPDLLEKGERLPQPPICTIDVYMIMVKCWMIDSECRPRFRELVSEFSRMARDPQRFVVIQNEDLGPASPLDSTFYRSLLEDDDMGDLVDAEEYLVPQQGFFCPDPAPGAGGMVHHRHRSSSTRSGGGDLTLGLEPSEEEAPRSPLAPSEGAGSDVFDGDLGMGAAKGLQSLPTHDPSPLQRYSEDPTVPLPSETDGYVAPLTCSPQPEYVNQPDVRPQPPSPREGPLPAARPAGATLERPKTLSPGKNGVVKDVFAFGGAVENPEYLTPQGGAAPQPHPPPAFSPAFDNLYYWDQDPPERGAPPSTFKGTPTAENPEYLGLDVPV
Ephrin type-A receptor 2, sequence (P29317 whole entry, the tested form may be a part): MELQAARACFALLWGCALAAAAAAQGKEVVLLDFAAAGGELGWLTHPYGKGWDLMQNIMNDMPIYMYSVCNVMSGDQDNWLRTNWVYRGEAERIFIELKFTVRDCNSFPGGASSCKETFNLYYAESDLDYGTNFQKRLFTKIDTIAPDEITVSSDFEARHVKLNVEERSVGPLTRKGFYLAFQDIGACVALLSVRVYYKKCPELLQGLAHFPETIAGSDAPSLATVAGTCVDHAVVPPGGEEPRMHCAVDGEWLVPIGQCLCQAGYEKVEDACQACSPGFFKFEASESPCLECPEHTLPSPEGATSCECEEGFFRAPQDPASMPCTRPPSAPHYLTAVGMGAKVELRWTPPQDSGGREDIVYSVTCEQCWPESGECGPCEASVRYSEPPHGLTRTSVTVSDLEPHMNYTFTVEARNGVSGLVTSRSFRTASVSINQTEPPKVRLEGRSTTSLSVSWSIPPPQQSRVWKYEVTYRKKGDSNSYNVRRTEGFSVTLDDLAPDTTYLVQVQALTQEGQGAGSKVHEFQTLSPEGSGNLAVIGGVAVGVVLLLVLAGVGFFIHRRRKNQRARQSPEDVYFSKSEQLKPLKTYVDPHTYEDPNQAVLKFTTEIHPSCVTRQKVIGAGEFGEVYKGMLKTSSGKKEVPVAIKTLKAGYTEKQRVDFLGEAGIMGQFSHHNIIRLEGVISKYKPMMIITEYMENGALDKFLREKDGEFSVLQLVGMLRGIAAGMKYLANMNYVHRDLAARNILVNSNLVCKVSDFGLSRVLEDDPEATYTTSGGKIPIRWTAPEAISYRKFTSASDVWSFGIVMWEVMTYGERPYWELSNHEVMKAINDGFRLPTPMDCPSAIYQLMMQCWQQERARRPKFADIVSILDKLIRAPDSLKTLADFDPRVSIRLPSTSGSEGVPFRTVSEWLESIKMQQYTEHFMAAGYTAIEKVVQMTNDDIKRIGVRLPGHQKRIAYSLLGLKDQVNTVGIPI
Vascular endothelial growth factor receptor 2, sequence (P35968 whole entry, the tested form may be a part): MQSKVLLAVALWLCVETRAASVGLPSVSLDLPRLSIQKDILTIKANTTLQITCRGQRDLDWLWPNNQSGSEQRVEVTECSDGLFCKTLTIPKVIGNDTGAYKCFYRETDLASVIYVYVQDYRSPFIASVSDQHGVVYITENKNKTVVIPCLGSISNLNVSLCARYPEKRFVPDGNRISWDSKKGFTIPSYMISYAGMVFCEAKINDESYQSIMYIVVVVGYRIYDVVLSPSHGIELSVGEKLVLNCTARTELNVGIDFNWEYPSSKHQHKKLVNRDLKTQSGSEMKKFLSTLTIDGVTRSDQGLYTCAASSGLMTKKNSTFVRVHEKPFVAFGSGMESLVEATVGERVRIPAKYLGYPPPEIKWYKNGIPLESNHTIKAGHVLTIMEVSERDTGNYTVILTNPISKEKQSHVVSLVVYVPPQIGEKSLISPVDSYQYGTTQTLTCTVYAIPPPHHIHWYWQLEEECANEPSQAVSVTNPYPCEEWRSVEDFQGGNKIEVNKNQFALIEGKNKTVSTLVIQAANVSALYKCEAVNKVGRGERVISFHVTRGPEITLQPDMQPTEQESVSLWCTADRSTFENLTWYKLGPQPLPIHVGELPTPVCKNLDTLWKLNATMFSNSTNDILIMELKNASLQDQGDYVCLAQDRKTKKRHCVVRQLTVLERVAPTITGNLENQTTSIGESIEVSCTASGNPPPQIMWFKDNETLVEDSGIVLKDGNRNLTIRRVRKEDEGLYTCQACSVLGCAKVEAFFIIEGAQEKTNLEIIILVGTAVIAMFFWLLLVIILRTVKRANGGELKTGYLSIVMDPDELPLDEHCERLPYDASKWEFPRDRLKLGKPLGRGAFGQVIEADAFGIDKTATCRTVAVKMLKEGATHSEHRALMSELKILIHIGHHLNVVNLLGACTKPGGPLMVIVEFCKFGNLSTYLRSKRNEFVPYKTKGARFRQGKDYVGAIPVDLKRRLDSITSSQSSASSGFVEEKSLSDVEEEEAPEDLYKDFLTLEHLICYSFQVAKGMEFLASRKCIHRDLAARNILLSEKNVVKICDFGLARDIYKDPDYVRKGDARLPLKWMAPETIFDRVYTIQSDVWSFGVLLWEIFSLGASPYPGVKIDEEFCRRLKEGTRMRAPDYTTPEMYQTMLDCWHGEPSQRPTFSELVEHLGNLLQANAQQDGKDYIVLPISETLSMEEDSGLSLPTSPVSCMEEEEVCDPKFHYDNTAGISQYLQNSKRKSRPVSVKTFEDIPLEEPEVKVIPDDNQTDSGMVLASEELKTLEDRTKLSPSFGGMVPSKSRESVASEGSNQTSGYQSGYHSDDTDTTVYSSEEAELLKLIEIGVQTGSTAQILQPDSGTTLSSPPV

In general, IC50 refers to the concentration at which inhibition is half-maximal. As to `COc1cc2c(Nc3ccc(Cl)c(Cl)c3)ncnc2cc1OCC1CN(S(C)(=O)=O)CCO1` (centres undefined), the IC50 in assay [1] is 0.05 to 1 µM; on Ephrin type-A receptor 2 it was less than 0.05 µM; in assay [2], less than 0.05 µM; at Ephrin type-B receptor 4, less than 0.05 µM.
With `COc1cc2c(Nc3ccc(Br)cc3C)ncnc2cc1OCC1CN(C)CCO1` (centres undefined), the IC50 (in assay [1]; on Ephrin type-A receptor 2; at Ephrin type-B receptor 4) was 0.05 to 1 µM throughout.
With `COc1cc2c(Nc3ccc(Cl)c(Cl)c3)ncnc2cc1OCC1CN(C(=O)CC(=O)O)CCO1` (centres undefined), the IC50 (in assay [1]; at Ephrin type-A receptor 2; on Ephrin type-B receptor 4) was less than 0.05 µM in each case.
On to `COc1cc2c(Nc3ccc(Cl)c(Cl)c3)ncnc2cc1OCC1CN(C(N)=NC#N)CCO1` (centres undefined), for which the IC50 (in assay [1]; on Ephrin type-A receptor 2; in assay [2]; at Ephrin type-B receptor 4) was less than 0.05 µM in each case.
Turning to `COc1cc2c(Nc3ccc(Cl)c(Br)c3)ncnc2cc1OCC1CN(C)CCO1` (centres undefined), the 50% inhibitory concentration (IC50) in assay [1] was 0.05 to 1 µM; at Ephrin type-A receptor 2 it was 0.05 to 1 µM; at Ephrin type-B receptor 4, less than 0.05 µM.
On to `COC(=O)CCC(=O)N1CCOC(COc2cc3ncnc(Nc4ccc(Cl)c(Cl)c4)c3cc2OC)C1` (centres undefined), for which the IC50 (in assay [1]; on Ephrin type-A receptor 2; at Ephrin type-B receptor 4) was 0.05 to 1 µM each time.
In the case of `COc1cc2c(Nc3ccc(Cl)c(Cl)c3)ncnc2cc1OCC1CN(C(=O)c2cccc3ccccc23)CCO1` (centres undefined), the half-maximal inhibitory concentration (IC50) in assay [1] lay in the range of 0.05 to 1 µM; on Ephrin type-A receptor 2 it was 1 to 20 µM; at Ephrin type-B receptor 4, 0.05 to 1 µM.
Turning to `COc1cc2c(Nc3cc(Cl)c(Cl)c(Cl)c3)ncnc2cc1OCC1CN(C)CCO1` (centres undefined), the IC50 was 0.05 to 1 µM in assay [1], 0.05 to 1 µM on Ephrin type-A receptor 2, 0.05 to 1 µM in assay [2] and less than 0.05 µM on Ephrin type-B receptor 4.
As to `COc1cc2c(Nc3ccc(Cl)c(C)c3)ncnc2cc1OCC1CN(C)CCO1` (centres undefined), the IC50 (in assay [1]; on Ephrin type-A receptor 2; on Ephrin type-B receptor 4) was 0.05 to 1 µM in each case.
In the case of `COc1cc2c(Nc3ccc(Cl)c(Cl)c3)ncnc2cc1OCC1CN(C(=O)C(C)(C)C)CCO1` (centres undefined), the IC50 (in assay [1]; at Ephrin type-A receptor 2; at Ephrin type-B receptor 4) was 0.05 to 1 µM in each case.
In the case of `COc1cc2c(Nc3ccc(Br)cc3Cl)ncnc2cc1OCC1CN(C)CCO1` (centres undefined), the IC50 (in assay [1]; on Ephrin type-A receptor 2; on Ephrin type-B receptor 4) was 0.05 to 1 µM each time.
Consider `COc1cc2c(Nc3cccc(Cl)c3F)ncnc2cc1OCC1CN(/C(N)=N/C#N)CCCO1` (centres undefined), for which the IC50 in assay [1] is 0.05 to 1 µM; on Ephrin type-A receptor 2 it was 0.05 to 1 µM; in assay [2], less than 0.05 µM; on Ephrin type-B receptor 4, less than 0.05 µM.
`COCCOc1cc2c(Nc3ccc(Cl)c(Cl)c3)ncnc2cc1OCC1CN(C)CCO1` (centres undefined): the results for the IC50 (in assay [1]; at Ephrin type-A receptor 2; at Ephrin type-B receptor 4) were 0.05 to 1 µM, 0.05 to 1 µM and less than 0.05 µM, respectively.
With `COc1cc2c(Nc3ccc(Cl)c(Cl)c3)ncnc2cc1OCC1CNCC(C)(C)O1` (centres undefined), the IC50 in assay [1] was less than 0.05 µM; in assay [2] it was 0.05 to 1 µM; at Ephrin type-B receptor 4, 0.05 to 1 µM.
For the molecule `COc1cc2c(Nc3ccc(C)c(Br)c3)ncnc2cc1OCC1CN(C)CCO1` (centres undefined), the IC50 in assay [1] was less than 0.05 µM; at Ephrin type-A receptor 2 it was 0.05 to 1 µM; in assay [2], 0.05 to 1 µM; at Ephrin type-B receptor 4, less than 0.05 µM.
`COc1cc2c(Nc3ccc(Cl)c(Cl)c3)ncnc2cc1OCC1CN(CC(N)=O)CCO1` (centres undefined): the IC50 in assay [1] is 0.05 to 1 µM; on Ephrin type-A receptor 2, 0.05 to 1 µM; in assay [2], less than 0.05 µM; at Ephrin type-B receptor 4, less than 0.05 µM.
Take `CCOc1cc2c(Nc3ccc(Cl)c(Cl)c3)ncnc2cc1OCC1CNCCO1` (centres undefined): the IC50 (in assay [1]; in assay [2]; on Ephrin type-B receptor 4) was less than 0.05 µM each time.
`CCCCN1CCOC(COc2cc3ncnc(Nc4ccc(Cl)c(Cl)c4)c3cc2OC)C1` (centres undefined): the 50% inhibitory concentration (IC50) in assay [1] is less than 0.05 µM; at Ephrin type-A receptor 2, 0.05 to 1 µM; in assay [2] it was 0.05 to 1 µM; at Ephrin type-B receptor 4, less than 0.05 µM.
As to `COc1cc2c(Nc3ccc(Cl)c(Cl)c3)ncnc2cc1OCC1CN(C(=O)C2CCCC2)CCO1` (centres undefined), the IC50 in assay [1] was 0.05 to 1 µM; at Ephrin type-A receptor 2, 0.05 to 1 µM; in assay [2] it was less than 0.05 µM; at Ephrin type-B receptor 4, less than 0.05 µM.
`COc1cc2c(Nc3ccc(Cl)c(Cl)c3)ncnc2cc1OCC1CN(S(=O)(=O)CCCCl)CCO1` (centres undefined): the IC50 in assay [1] was 0.05 to 1 µM; on Ephrin type-A receptor 2 it was 0.05 to 1 µM; in assay [2], 0.05 to 1 µM; at Ephrin type-B receptor 4, less than 0.05 µM.
On to `COc1cc2c(Nc3ccc(Cl)c(Cl)c3)ncnc2cc1OCC1CN(S(C)(=O)=O)CCCO1` (centres undefined), for which the IC50 in assay [1] is 0.05 to 1 µM; at Ephrin type-A receptor 2, 0.05 to 1 µM; in assay [2], less than 0.05 µM; on Ephrin type-B receptor 4, less than 0.05 µM.
In the case of `COc1cc2c(Nc3ccc(Cl)c(Cl)c3)ncnc2cc1OCC1CN(C)CC(C)(C)O1` (centres undefined), the IC50 (in assay [1]; in assay [2]; on Ephrin type-B receptor 4) was 0.05 to 1 µM each time.
On to `COc1cc2c(Nc3ccc(Cl)c(Cl)c3)ncnc2cc1OCc1csc(C2CCCN(C)C2)n1` (centres undefined), for which the IC50 (in assay [1]; on Ephrin type-A receptor 2; in assay [2]; on Ephrin type-B receptor 4) was 0.05 to 1 µM throughout.
As for `CCC1(C)CN(C)CC(COc2cc3ncnc(Nc4ccc(Cl)c(Cl)c4)c3cc2OC)O1` (centres undefined), the IC50 (in assay [1]; at Ephrin type-A receptor 2; on Ephrin type-B receptor 4) was 0.05 to 1 µM each time.
Consider `COc1cc2c(Nc3ccc(Cl)c(Cl)c3)ncnc2cc1OCc1nc2c(s1)CN(C)CC2`, for which the IC50 is 0.05 to 1 µM in assay [1], 0.05 to 1 µM at Ephrin type-A receptor 2, less than 0.05 µM in assay [2] and less than 0.05 µM on Ephrin type-B receptor 4.
For `COc1cc2c(Nc3ccc(Cl)c(Cl)c3Cl)ncnc2cc1OCC1CN(C)CCO1` (centres undefined), the IC50 in assay [1] was less than 0.05 µM; on Ephrin type-A receptor 2, less than 0.05 µM; in assay [2], 0.05 to 1 µM; on Ephrin type-B receptor 4, less than 0.05 µM.
Regarding `COc1cc2c(Nc3ccc(Cl)c(Cl)c3)ncnc2cc1OCC1CN(C(=O)c2c(C)noc2C)CCO1` (centres undefined), the IC50 was 0.05 to 1 µM in assay [1], 0.05 to 1 µM at Ephrin type-A receptor 2, less than 0.05 µM in assay [2] and less than 0.05 µM at Ephrin type-B receptor 4.
Consider `CN1CCOC(COc2cc3ncnc(Nc4ccc(Cl)c(Cl)c4)c3cc2O)C1` (centres undefined), for which the IC50 (in assay [1]; at Ephrin type-A receptor 2; on Ephrin type-B receptor 4) was 0.05 to 1 µM in each case.
As to `COc1cc2c(Nc3ccc(Cl)c(Cl)c3)ncnc2cc1OCc1csc(N2CCN(C)CC2)n1`, the IC50 (in assay [1]; on Ephrin type-A receptor 2; in assay [2]; on Ephrin type-B receptor 4) was 0.05 to 1 µM in each case.
As to `CCN1CCc2nc(COc3cc4ncnc(Nc5ccc(Cl)c(Cl)c5)c4cc3OC)sc2C1`, the IC50 in assay [1] is 0.05 to 1 µM; at Ephrin type-A receptor 2 it was 0.05 to 1 µM; in assay [2] it was less than 0.05 µM; on Ephrin type-B receptor 4, less than 0.05 µM.
Consider `CCS(=O)(=O)N1CCOC(COc2cc3ncnc(Nc4ccc(Cl)c(Cl)c4)c3cc2OC)C1` (centres undefined), for which the IC50 in assay [1] is 0.05 to 1 µM; on Ephrin type-A receptor 2, less than 0.05 µM; in assay [2], less than 0.05 µM; on Ephrin type-B receptor 4, less than 0.05 µM.
As to `COc1cc2c(Nc3ccc(Cl)c(Cl)c3)ncnc2cc1OCC1CN(C(=O)c2ccc3c(c2)OCO3)CCO1` (centres undefined), the IC50 (in assay [1]; at Ephrin type-A receptor 2; at Ephrin type-B receptor 4) was 0.05 to 1 µM in each case.
For `COc1cc2c(Nc3ccc(Cl)c(Cl)c3)ncnc2cc1OCC1CN(C(=O)c2ccc(Cl)nc2)CCO1` (centres undefined), the IC50 in assay [1] is 0.05 to 1 µM; at Ephrin type-A receptor 2 it was 0.05 to 1 µM; on Ephrin type-B receptor 4, less than 0.05 µM.
With `COc1cc2c(Nc3ccc(Cl)c(Cl)c3)ncnc2cc1OCC1CN(/C(=N/C#N)N2CCN(C)CC2)CCO1` (centres undefined), the IC50 in assay [1] is less than 0.05 µM; at Ephrin type-A receptor 2, 0.05 to 1 µM; on Ephrin type-B receptor 4 it was less than 0.05 µM.
In the case of `CCC(=O)N1CCOC(COc2cc3ncnc(Nc4ccc(Cl)c(Cl)c4)c3cc2OC)C1` (centres undefined), the IC50 in assay [1] was 0.05 to 1 µM; on Ephrin type-A receptor 2 it was 0.05 to 1 µM; in assay [2], less than 0.05 µM; at Ephrin type-B receptor 4, less than 0.05 µM.
For `COc1cc2c(Nc3cccc(Br)c3Cl)ncnc2cc1OCC1CN(C)CCO1` (centres undefined), the values for the IC50 (in assay [1]; on Ephrin type-A receptor 2; at Ephrin type-B receptor 4) were 0.05 to 1 µM, 0.05 to 1 µM and less than 0.05 µM, respectively.
As for `COCCNC(=NC#N)N1CCOC(COc2cc3ncnc(Nc4ccc(Cl)c(Cl)c4)c3cc2OC)C1` (centres undefined), the IC50 was 0.05 to 1 µM in assay [1], 0.05 to 1 µM at Ephrin type-A receptor 2 and less than 0.05 µM on Ephrin type-B receptor 4.
